The NIST ThermoML archive (doi:10.1016/j.fluid.2016.08.002)

Experiment: xn = mol fraction of the nth substance listed
Details: Gas, Vibrating tube method

S [hydrogen sulfide] + C
Details	mass density [kg/m3]
293.33 K, 19012 kPa, x2 = 0.714	281.75
293.33 K, 19476 kPa, x2 = 0.714	286.23
293.33 K, 21863 kPa, x2 = 0.714	306.8
293.33 K, 26879 kPa, x2 = 0.714	337.31
293.33 K, 29517 kPa, x2 = 0.714	349.82
293.33 K, 29998 kPa, x2 = 0.714	352.02
293.34 K, 6006 kPa, x2 = 0.8197	58.11
293.34 K, 14027 kPa, x2 = 0.8197	162.75
293.34 K, 14501 kPa, x2 = 0.8197	169.12
293.34 K, 16524 kPa, x2 = 0.714	253.44
293.34 K, 17035 kPa, x2 = 0.714	260.09
293.34 K, 20081 kPa, x2 = 0.714	291.58
293.34 K, 20504 kPa, x2 = 0.714	295.67
293.34 K, 22090 kPa, x2 = 0.8197	248.06
293.35 K, 936 kPa, x2 = 0.8197	7.74
293.35 K, 2422 kPa, x2 = 0.8197	20.5
293.35 K, 4502 kPa, x2 = 0.8197	41.72
293.35 K, 11685 kPa, x2 = 0.8197	130.63
293.35 K, 17740 kPa, x2 = 0.714	267.95
293.35 K, 21512 kPa, x2 = 0.8197	243.53
293.36 K, 1962 kPa, x2 = 0.8197	16.56
293.36 K, 12068 kPa, x2 = 0.8197	136.11
293.36 K, 12506 kPa, x2 = 0.8197	142.15
293.36 K, 13036 kPa, x2 = 0.8197	149.41
293.36 K, 13500 kPa, x2 = 0.8197	155.72
293.37 K, 10013 kPa, x2 = 0.8197	107.38
293.37 K, 15006 kPa, x2 = 0.8197	175.59
293.37 K, 22488 kPa, x2 = 0.8197	251.05
293.37 K, 26028 kPa, x2 = 0.8197	274.53
293.37 K, 27520 kPa, x2 = 0.8197	283
293.37 K, 29405 kPa, x2 = 0.8197	292.65
293.37 K, 29932 kPa, x2 = 0.8197	295.13
293.38 K, 2915 kPa, x2 = 0.8197	26.63
293.38 K, 27986 kPa, x2 = 0.8197	285.56
293.38 K, 28437 kPa, x2 = 0.8197	287.96
293.38 K, 28979 kPa, x2 = 0.8197	290.66
293.39 K, 5407 kPa, x2 = 0.714	58.83
293.39 K, 22971 kPa, x2 = 0.8197	254.58
293.39 K, 24024 kPa, x2 = 0.8197	261.83
293.39 K, 24659 kPa, x2 = 0.8197	266.01
293.4 K, 17009 kPa, x2 = 0.8197	200
293.4 K, 29019 kPa, x2 = 0.714	347.54
293.41 K, 16017 kPa, x2 = 0.8197	188.26
293.41 K, 17526 kPa, x2 = 0.8197	205.67
293.41 K, 19019 kPa, x2 = 0.8197	221.14
293.41 K, 19519 kPa, x2 = 0.8197	225.91
293.41 K, 20054 kPa, x2 = 0.8197	230.93
293.41 K, 21059 kPa, x2 = 0.8197	239.83
293.41 K, 23490 kPa, x2 = 0.8197	258.21
293.41 K, 25538 kPa, x2 = 0.8197	271.56
293.41 K, 27022 kPa, x2 = 0.8197	280.18
293.42 K, 3851 kPa, x2 = 0.714	38.01
293.42 K, 3941 kPa, x2 = 0.8197	35.88
293.42 K, 18033 kPa, x2 = 0.8197	211.2
293.42 K, 18536 kPa, x2 = 0.8197	216.41
293.42 K, 20511 kPa, x2 = 0.8197	234.95
293.42 K, 25034 kPa, x2 = 0.8197	268.44
293.42 K, 26523 kPa, x2 = 0.8197	277.36
293.42 K, 28586 kPa, x2 = 0.714	345.52
293.43 K, 4386 kPa, x2 = 0.714	46.59
293.43 K, 28085 kPa, x2 = 0.714	343.33
293.44 K, 4823 kPa, x2 = 0.714	51.27
293.45 K, 15532 kPa, x2 = 0.8197	182.32
293.45 K, 16485 kPa, x2 = 0.8197	193.92
293.53 K, 27520 kPa, x2 = 0.714	340.85
293.64 K, 27145 kPa, x2 = 0.714	339.08
